This note sets out measurements from ChEMBL document CHEMBL4765237, “Structural optimization and structure-activity relationship studies of N-phenyl-7,8-dihydro-6H-pyrimido[5,4-b][1,4]oxazin-4-amine derivatives as a new class of inhibitors of RET and its drug resistance mutants” (Eur J Med Chem, 2018).

A short description of assay [1]: Growth inhibition of […] NIH3T3 cells incubated for 3 days by MTT assay. Format: functional. The settings on record: NIH3T3, 72 h; time 3 day.
The test system of assay [2] is BaF3. The assay can be described thus: Growth inhibition of mouse BaF3 cells incubated for 3 days by MTT assay. The settings on record: BaF3, 72 h, time 3 day. Type of assay: functional.
Assay [3] is described as follows: Growth inhibition of […] NIH3T3 cells harboring RET C634Y mutant incubated for 3 days by MTT assay. Type of assay: functional. The settings on record: NIH3T3, 72 h; time 3 day. For orientation: Tetrazolium dyes change colour on reduction, which living cells bring about.
Assay [4] has as its system BaF3. Type of assay: functional. The settings on record: Mus musculus, BaF3, 72 h; time 3 day.
Assay [5] relates to BaF3. Put plainly: Growth inhibition of mouse BaF3 cells harboring RET M918T mutant incubated for 3 days by MTT assay. Format: functional. The settings on record: BaF3, 72 h, time 3 day.
For assay [6], the system named is BaF3. The assay can be described thus: Growth inhibition of mouse BaF3 cells harboring RET V804M mutant incubated for 3 days by MTT assay. Type of assay: functional. The settings on record: BaF3, 72 h, time 3 day.
Assay [7] has as its system BaF3. The assay can be described thus: Growth inhibition of mouse BaF3 cells over expressing wild type RET incubated for 3 days by MTT assay. Type of assay: functional. The settings on record: BaF3, 72 h, time 3 day.
A short description of assay [8]: Growth inhibition of human TT cells incubated for 10 days by MTT assay. The settings on record: 240 h, time 10 day. Format: functional.
The target in assay [9] is Proto-oncogene tyrosine-protein kinase receptor Ret (Homo sapiens, UniProt P07949, V804M).
Assay [10] has as its target Proto-oncogene tyrosine-protein kinase receptor Ret (Homo sapiens, UniProt P07949).

SMILES strings stand for the structures.

Chain of Proto-oncogene tyrosine-protein kinase receptor Ret (Homo sapiens, UniProt P07949, V804M) (P07949 29-1114 V804M limits assumed): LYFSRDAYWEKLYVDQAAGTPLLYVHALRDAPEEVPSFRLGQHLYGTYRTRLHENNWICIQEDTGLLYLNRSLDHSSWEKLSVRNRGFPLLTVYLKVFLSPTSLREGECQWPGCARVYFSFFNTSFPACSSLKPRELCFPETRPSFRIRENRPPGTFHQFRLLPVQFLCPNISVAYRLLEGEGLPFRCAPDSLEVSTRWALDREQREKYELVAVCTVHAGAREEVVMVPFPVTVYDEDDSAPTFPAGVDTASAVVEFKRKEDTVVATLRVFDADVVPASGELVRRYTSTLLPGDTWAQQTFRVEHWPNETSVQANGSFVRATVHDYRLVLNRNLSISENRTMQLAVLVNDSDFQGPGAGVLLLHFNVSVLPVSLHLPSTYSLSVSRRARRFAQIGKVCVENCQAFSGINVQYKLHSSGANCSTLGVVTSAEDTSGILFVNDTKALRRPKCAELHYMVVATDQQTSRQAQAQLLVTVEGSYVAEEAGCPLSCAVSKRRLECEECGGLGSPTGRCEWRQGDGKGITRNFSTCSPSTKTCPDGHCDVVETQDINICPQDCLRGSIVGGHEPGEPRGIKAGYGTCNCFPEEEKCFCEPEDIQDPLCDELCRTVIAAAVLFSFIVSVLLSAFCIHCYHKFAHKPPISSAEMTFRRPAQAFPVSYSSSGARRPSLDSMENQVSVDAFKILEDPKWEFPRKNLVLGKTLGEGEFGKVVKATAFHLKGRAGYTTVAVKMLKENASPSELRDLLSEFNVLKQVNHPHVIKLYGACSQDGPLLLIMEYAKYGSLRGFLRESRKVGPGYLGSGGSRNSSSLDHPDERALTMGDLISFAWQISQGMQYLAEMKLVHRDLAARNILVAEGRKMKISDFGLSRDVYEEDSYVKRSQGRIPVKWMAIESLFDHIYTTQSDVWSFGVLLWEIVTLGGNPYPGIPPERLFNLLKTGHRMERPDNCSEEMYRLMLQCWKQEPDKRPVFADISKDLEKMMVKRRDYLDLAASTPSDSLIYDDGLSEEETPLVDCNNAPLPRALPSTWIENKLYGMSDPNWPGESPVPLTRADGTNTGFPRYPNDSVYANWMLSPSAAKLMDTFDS
Chain of Proto-oncogene tyrosine-protein kinase receptor Ret (Homo sapiens, UniProt P07949) (P07949 whole entry): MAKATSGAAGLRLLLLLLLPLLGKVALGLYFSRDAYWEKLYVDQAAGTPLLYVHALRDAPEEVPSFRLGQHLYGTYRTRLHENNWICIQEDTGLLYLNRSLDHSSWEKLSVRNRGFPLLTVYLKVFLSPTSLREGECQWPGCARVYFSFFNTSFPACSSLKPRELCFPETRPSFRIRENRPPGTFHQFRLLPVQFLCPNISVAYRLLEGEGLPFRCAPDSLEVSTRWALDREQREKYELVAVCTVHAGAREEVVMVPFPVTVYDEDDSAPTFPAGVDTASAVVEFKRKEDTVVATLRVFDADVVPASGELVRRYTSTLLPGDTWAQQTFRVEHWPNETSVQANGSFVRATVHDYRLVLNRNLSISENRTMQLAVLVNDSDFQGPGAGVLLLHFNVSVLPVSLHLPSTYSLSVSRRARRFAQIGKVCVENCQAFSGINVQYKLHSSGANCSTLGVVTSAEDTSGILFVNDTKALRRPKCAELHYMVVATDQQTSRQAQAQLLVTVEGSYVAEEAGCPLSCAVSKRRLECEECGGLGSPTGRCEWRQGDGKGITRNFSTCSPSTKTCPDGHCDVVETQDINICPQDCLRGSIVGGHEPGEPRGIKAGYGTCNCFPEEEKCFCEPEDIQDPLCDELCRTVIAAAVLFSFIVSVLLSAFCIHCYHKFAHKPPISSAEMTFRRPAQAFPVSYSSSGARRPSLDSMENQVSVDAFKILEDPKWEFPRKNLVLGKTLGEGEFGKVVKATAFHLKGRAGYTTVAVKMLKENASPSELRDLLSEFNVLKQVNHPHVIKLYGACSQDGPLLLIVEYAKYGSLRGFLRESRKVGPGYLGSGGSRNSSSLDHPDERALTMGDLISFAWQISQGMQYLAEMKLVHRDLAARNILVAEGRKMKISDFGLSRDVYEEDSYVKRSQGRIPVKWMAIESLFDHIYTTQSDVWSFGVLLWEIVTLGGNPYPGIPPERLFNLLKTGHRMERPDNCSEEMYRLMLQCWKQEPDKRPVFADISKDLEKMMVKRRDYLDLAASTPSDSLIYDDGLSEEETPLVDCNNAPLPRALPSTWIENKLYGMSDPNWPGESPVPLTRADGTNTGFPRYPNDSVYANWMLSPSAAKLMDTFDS

`O=C(Nc1ccc(Nc2ncnc3c2OCCN3)cc1)Nc1ccc(Cl)c(C(F)(F)F)c1`: the GI50 in assay [1] was greater than 10 µM; in the assay on BaF3 [2], greater than 10 µM; in assay [3], 2.29 µM; in the assay on BaF3 [4], greater than 10 µM; in the assay on BaF3 [5], 9.94 µM; in the assay with BaF3 [6], greater than 10 µM. In addition, the GI50 with BaF3 [7] was found to be 3.07 µM; in assay [8], 1.99 µM. Besides, the IC50 in assay [9] turned out to be 0.188 µM; in assay [10], 0.177 µM.
In the case of `Cc1cc(NC(=O)Nc2cc(C(C)(C)C)on2)ccc1Nc1ncnc2c1OCCN2`, the GI50 was greater than 10 µM in [1]; greater than 10 µM with BaF3 [2]; 1.54 µM in assay [3]; 5.72 µM in the assay on BaF3 [4]; 4.76 µM in the assay with BaF3 [5]; 2.03 µM in the assay on BaF3 [6]. In addition, the concentration for 50% growth inhibition (GI50) with BaF3 [7] stood at 0.73 µM; in assay [8] it was 0.45 µM. The IC50 in assay [9] is 0.044 µM; in assay [10] it was 0.05 µM.
Turning to `CC(C)(C)c1cc(NC(=O)Nc2ccc(Nc3ncnc4c3OCCN4)nc2)no1`, the GI50 in assay [1] was greater than 10 µM; in the assay on BaF3 [2], greater than 10 µM; in assay [3], 10 µM; with BaF3 [4], greater than 10 µM; in the assay with BaF3 [5], greater than 10 µM; in the assay with BaF3 [6], greater than 10 µM. The GI50 in the assay with BaF3 [7] stood at 4.12 µM; in [8] it was 2.56 µM. The IC50 in assay [9] came out at 0.18 µM; in assay [10], 0.077 µM.
Regarding `CC(C)(C)c1cc(NC(=O)Nc2ccc(Nc3ncnc4c3OCCN4)c(O)c2)no1`, the GI50 in assay [1] was greater than 10 µM; in the assay with BaF3 [2], greater than 10 µM; in [3] it was 1.55 µM; in the assay on BaF3 [4], 6.02 µM; in the assay on BaF3 [5] it was 8.81 µM; in the assay with BaF3 [6], 1.87 µM. The GI50 was determined as 3.37 µM with BaF3 [7] and 0.8 µM in assay [8]. Further, the values for the IC50 in assay [9] and in assay [10] were 0.063 µM and 0.025 µM, respectively.
On to `O=C(Nc1ccc(Nc2ncnc3c2OCCN3)cc1)Nc1cccc(-c2ccccc2)c1`, for which the GI50 in assay [1] is greater than 10 µM; with BaF3 [2] it was greater than 10 µM; in [3], 10 µM; in the assay with BaF3 [4] it was greater than 10 µM; in the assay on BaF3 [5], greater than 10 µM; in the assay with BaF3 [6] it was greater than 10 µM. Further, the GI50 (in the assay on BaF3 [7]; in [8]) was greater than 10 µM throughout. For the same compound, the IC50 in assay [9] was 7.59 µM; in assay [10], greater than 10 µM.
`O=C(Nc1ccc(Nc2ncnc3c2OCCN3)cc1)Nc1ccc(C(F)(F)F)cc1`: the GI50 in [1] was greater than 10 µM; in the assay on BaF3 [2] it was 10 µM; in [3], 3.14 µM; with BaF3 [4] it was greater than 10 µM; in the assay on BaF3 [5], greater than 10 µM; with BaF3 [6] it was 8.49 µM. Further, the GI50 worked out at 4.4 µM with BaF3 [7] and 6.65 µM in [8]. The IC50 was 0.276 µM in assay [9] and 0.306 µM in [10].
As for `CC(C)(C)c1cc(NC(=O)Nc2ccc(Nc3ncnc4c3OCCN4)cc2F)no1`, the GI50 in [1] is greater than 10 µM; in the assay on BaF3 [2], greater than 10 µM; in assay [3] it was 0.13 µM; in the assay on BaF3 [4] it was 5.23 µM; in the assay on BaF3 [5], 0.59 µM; in the assay on BaF3 [6], 4.72 µM. Further, the figures for the GI50 (with BaF3 [7]; in assay [8]) were 0.09 µM and 0.08 µM, respectively. The values for the IC50 in assay [9] and in assay [10] were 0.057 µM and 0.01 µM, respectively.
Turning to `COc1cc(NC(=O)Nc2cc(C(C)(C)C)on2)ccc1Nc1ncnc2c1OCCN2`, the GI50 in [1] is greater than 10 µM; in the assay with BaF3 [2] it was greater than 10 µM; in assay [3] it was 2.7 µM; in the assay on BaF3 [4], greater than 10 µM; in the assay on BaF3 [5], greater than 10 µM; in the assay with BaF3 [6], greater than 10 µM. Also, the results for the GI50 (in the assay on BaF3 [7]; in assay [8]) were 4.7 µM and 3.03 µM, respectively. Also, the IC50 is 0.033 µM in assay [9] and 0.022 µM in assay [10].
Consider `CC(C)(C)c1csc(NC(=O)Nc2ccc(Nc3ncnc4c3OCCN4)cc2)n1`, for which the concentration for 50% growth inhibition (GI50) (in assay [1]; in the assay on BaF3 [2]; in assay [3]; in the assay on BaF3 [4]; in the assay on BaF3 [5]; with BaF3 [6]) was greater than 10 µM throughout. For the same compound, the GI50 (with BaF3 [7]; in assay [8]) was greater than 10 µM each time. Also, the figures for the IC50 in assay [9] and in [10] were 5.17 µM and 3.15 µM, respectively.
Regarding `CN1CCOc2c(Nc3ccc(NC(=O)Nc4cc(C(C)(C)C)on4)cc3)ncnc21`, the GI50 (in assay [1]; in the assay with BaF3 [2]; in [3]; with BaF3 [4]; with BaF3 [5]; in the assay with BaF3 [6]) was greater than 10 µM in each case. Further, the figures for the GI50 (in the assay with BaF3 [7]; in assay [8]) were 8.06 µM and 4.86 µM, respectively. The IC50 in assay [9] amounted to 0.344 µM; in assay [10], 0.324 µM.
For `CN1CCCOc2c(Nc3ccc(NC(=O)Nc4cc(C(C)(C)C)on4)cc3)ncnc21`, the GI50 was greater than 10 µM in assay [1]; greater than 10 µM in the assay on BaF3 [2]; 3.58 µM in [3]; greater than 10 µM in the assay with BaF3 [4]; greater than 10 µM in the assay with BaF3 [5]; greater than 10 µM in the assay with BaF3 [6]. Besides, the GI50 with BaF3 [7] was determined as 3.89 µM; in [8], 1.6 µM. The values for the IC50 in [9] and in [10] were 0.716 µM and 0.322 µM, respectively.
With `CC(C)N1CCOc2c(Nc3ccc(NC(=O)Nc4cc(C(C)(C)C)on4)cc3)ncnc21`, the GI50 was greater than 10 µM in [1]; greater than 10 µM in the assay on BaF3 [2]; 3.12 µM in [3]; 7.98 µM in the assay on BaF3 [4]; 8.61 µM in the assay with BaF3 [5]; 8.98 µM with BaF3 [6]. The GI50 in the assay on BaF3 [7] came out at 5.16 µM; in assay [8] it was 5.1 µM. Also, the IC50 in assay [9] came to 5.37 µM; in assay [10], 8.77 µM.
Turning to `COc1ccc(NC(=O)Nc2ccc(Nc3ncnc4c3OCCN4)cc2)cc1`, the GI50 (in assay [1]; with BaF3 [2]; in [3]; in the assay on BaF3 [4]; in the assay with BaF3 [5]; in the assay on BaF3 [6]) was greater than 10 µM each time. The GI50 was greater than 10 µM in the assay with BaF3 [7] and 6.12 µM in assay [8]. Moreover, the 50% inhibitory concentration (IC50) turned out to be 0.824 µM in [9] and 0.227 µM in assay [10].
`O=C(Nc1ccc(Cl)cc1)Nc1ccc(Nc2ncnc3c2OCCN3)cc1`: the GI50 (in assay [1]; in the assay on BaF3 [2]; in [3]; in the assay on BaF3 [4]; in the assay on BaF3 [5]; with BaF3 [6]) was greater than 10 µM throughout. Further, the GI50 (in the assay with BaF3 [7]; in [8]) was greater than 10 µM in each case. Also, the IC50 in assay [9] was found to be 2.28 µM; in [10] it was 3.07 µM.
As for `Cc1cc(C)cc(NC(=O)Nc2ccc(Nc3ncnc4c3OCCN4)cc2)c1`, the GI50 in assay [1] was greater than 10 µM; in the assay with BaF3 [2], greater than 10 µM; in assay [3], 7.08 µM; in the assay on BaF3 [4] it was greater than 10 µM; in the assay on BaF3 [5], greater than 10 µM; in the assay on BaF3 [6], greater than 10 µM. For the same compound, the GI50 in the assay with BaF3 [7] was greater than 10 µM; in assay [8], 5.65 µM. Further, the IC50 in [9] was found to be 0.971 µM; in assay [10], 1.07 µM.
Take `COc1cc2/c(=N/c3ccc(Br)cc3F)nc[nH]c2cc1OCC1CCN(C)CC1` [VANDETANIB]: the 50% growth inhibitory concentration (GI50) in assay [1] is 7.15 µM; in the assay on BaF3 [2], 8.41 µM; in [3], 0.34 µM; in the assay with BaF3 [4], greater than 10 µM; in the assay on BaF3 [5] it was 0.97 µM; with BaF3 [6] it was greater than 10 µM. The values for the concentration for 50% growth inhibition (GI50) (with BaF3 [7]; in assay [8]) were 0.46 µM and 0.14 µM, respectively.

As a reminder, the GI50 is the concentration that inhibits growth by half. Lower therefore signals more potent growth inhibition. The term IC50 denotes the concentration needed to halve the response being measured. A low value points to inhibition by little substance.
